# Test results reported in patent EP4389749A1, “SUBSTITUTED 3,7-DIHYDRO-1H-PURINE-2,6-DIONES AND USE THEREOF” (invIOs GmbH, priority 2022, dated 2024).
# Where two headings read alike, the source gives them in different places.
# Key:
# CD8+ T-cells = assay: Immunostimulation assay with anti-CD3/28 stimulated T-cells, CD69 expression by flow cytometry; format: cell-based, human
# How it was run: (§1)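 Human CD4+/CD8+ T-cells purified from buffy-coat PBMCs were stimulated with 1 µg/ml anti-CD3 and 1 µg/ml anti-CD28 plus compound (0.001–30 µM) for 16 h at 37 °C. CD69 measured by flow cytometry; DMSO set minimal, CD3/28 Dynabeads maximal activation; EC50 by variable-slope fit.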
# CD4+ T-cells = assay: as above; format: cell-based, human
# How it was run: as §1
# [1] = T-cell, purified human CD4+ and CD8+ T-cells, 1 µg/ml anti-CD3, 1 µg/ml anti-CD28, 16 hours, surface FACS, read-out: EC50 CD8+
# [2] = T-cell, purified human CD4+ and CD8+ T-cells, 1 µg/ml anti-CD3, 1 µg/ml anti-CD28, 16 hours, surface FACS, read-out: EC50 CD4+
SMILES,EC50 (CD8+ T-cells; [1]) [nM],EC50 (CD4+ T-cells; [2]) [nM],EC50 (CD8+ T-cells; 16 h) [nM],EC50 (CD4+ T-cells; 16 h) [nM]
"CC(O)Cn1c(=O)[nH]c(=O)c2c1nc(-c1ccc(Oc3ccc(OC(F)(F)F)cc3F)cc1)n2C (stereo not drawn) [Compound 193, 8-(4-(2-fluoro-4-(trifluoromethoxy)phenoxy)phenyl)-3-(2-hydroxypropyl)-7-methyl-3,7-dihydro-1H-purine-2,6-dione]",1000 to 5000,1000 to 5000,,
"Cn1c(-c2ccc(Oc3ccc(OC(F)F)cc3)cc2)nc2c1c(=O)[nH]c(=O)n2CC(O)C(F)(F)F (stereo not drawn) [Compound 165, 8-(4-(4-(difluoromethoxy)phenoxy)phenyl)-7-methyl-3-(3,3,3-trifluoro-2-hydroxypropyl)-3,7-dihydro-1H-purine-2,6-dione]",1000 to 5000,1000 to 5000,,
"COc1cc(-c2nc3c(c(=O)[nH]c(=O)n3CC(O)CO)n2C)ccc1OCc1ccc(C(F)F)cc1 (stereo not drawn) [Compound 72, 8-(4-((4-(difluoromethyl)benzyl)oxy)-3-methoxyphenyl)-3-(2,3-dihydroxypropyl)-7-methyl-3,7-dihydro-1H-purine-2,6-dione]",1000 to 5000,1000 to 5000,,
Cn1c(-c2ccc(OCc3ccc(C(F)F)cc3)c(F)c2)nc2c1c(=O)[nH]c(=O)n2CC(O)C(F)(F)F (stereo not drawn) [Compound 18],,,1000 to 5000,> 5000
"COc1cc(-c2nc3c(c(=O)[nH]c(=O)n3CC(C)(C)O)n2C)ccc1OCc1ccccc1 [Compound 52, 8-(4-(benzyloxy)-3-methoxyphenyl)-3-(2-hydroxy-2-methylpropyl)-7-methyl-3,7-dihydro-1H-purine-2,6-dione]",> 5000,1000 to 5000,,

# Continued, values first:
EC50 (CD8+ T-cells; [1]) [nM],EC50 (CD4+ T-cells; [2]) [nM],EC50 (CD8+ T-cells; 16 h) [nM],EC50 (CD4+ T-cells; 16 h) [nM],SMILES
1000 to 5000,1000 to 5000,,,"CC(O)Cn1c(=O)[nH]c(=O)c2c1nc(-c1ccc(Oc3ccc(OC(F)(F)F)cc3Cl)cc1)n2C (stereo not drawn) [Compound 192, 8-(4-(2-chloro-4-(trifluoromethoxy)phenoxy)phenyl)-3-(2-hydroxypropyl)-7-methyl-3,7-dihydro-1H-purine-2,6-dione]"
< 100,< 100,,,"Cc1ccc(COc2ccc(-c3nc4c(c(=O)[nH]c(=O)n4CC(C)O)n3C)cc2OC(F)F)cc1 (stereo not drawn) [Compound 76, 8-(3-(difluoromethoxy)-4-((4-methylbenzyl)oxy)phenyl)-3-(2-hydroxypropyl)-7-methyl-3,7-dihydro-1H-purine-2,6-dione]"
500 to 1000,> 5000,,,"CC(O)Cn1c(=O)[nH]c(=O)c2c1nc(-c1ccc(Oc3ccc(OC(F)(F)F)cc3)c(Cl)c1)n2C (stereo not drawn) [Compound 179, 8-(3-chloro-4-(4-(trifluoromethoxy)phenoxy)phenyl)-3-(2-hydroxypropyl)-7-methyl-3,7-dihydro-1H-purine-2,6-dione]"
100 to 500,100 to 500,,,"Cn1c(-c2ccc(Oc3ccc(Cl)cc3)c(Cl)c2)nc2c1c(=O)[nH]c(=O)n2CC(O)C(F)(F)F (stereo not drawn) [Compound 153, 8-(3-chloro-4-(4-chlorophenoxy)phenyl)-7-methyl-3-(3,3,3-trifluoro-2-hydroxypropyl)-3,7-dihydro-1H-purine-2,6-dione]"
100 to 500,500 to 1000,,,"CC(O)Cn1c(=O)[nH]c(=O)c2c1nc(-c1ccc(OCc3ccc(C(F)F)cc3)c(F)c1)n2C (stereo not drawn) [Compound 65, 8-(4-((4-(difluoromethyl)benzyl)oxy)-3-fluorophenyl)-3-(2-hydroxypropyl)-7-methyl-3,7-dihydro-1H-purine-2,6-dione]"
100 to 500,100 to 500,,,"COc1cc(-c2nc3c(c(=O)[nH]c(=O)n3CC(O)C(F)F)n2C)ccc1OCc1ccccc1 (stereo not drawn) [Compound 68, 8-(4-(benzyloxy)-3-methoxyphenyl)-3-(3,3-difluoro-2-hydroxypropyl)-7-methyl-3,7-dihydro-1H-purine-2,6-dione]"
< 100,< 100,,,"COc1cc(-c2nc3c(c(=O)[nH]c(=O)n3CC(CO)C(F)F)n2C)ccc1OCc1ccc(C(F)F)cc1 (stereo not drawn) [Compound 66, 3-(3,3-difluoro-2-(hydroxymethyl)propyl)-8-(4-((4-(difluoromethyl)benzyl)oxy)-3-methoxyphenyl)-7-methyl-3,7-dihydro-1H-purine-2,6-dione]"
